In PMC5402262, “Synthesis and anti-obesity effects in vivo of Crotadihydrofuran C as a novel PPARγ antagonist from Crotalaria albida” (Scientific Reports, 2017):

Biological target: T1, PPARγ (Homo sapiens, UniProt P37231)
T1 construct: gene PPARG
T1 sequence (P37231 231-505 limits assumed): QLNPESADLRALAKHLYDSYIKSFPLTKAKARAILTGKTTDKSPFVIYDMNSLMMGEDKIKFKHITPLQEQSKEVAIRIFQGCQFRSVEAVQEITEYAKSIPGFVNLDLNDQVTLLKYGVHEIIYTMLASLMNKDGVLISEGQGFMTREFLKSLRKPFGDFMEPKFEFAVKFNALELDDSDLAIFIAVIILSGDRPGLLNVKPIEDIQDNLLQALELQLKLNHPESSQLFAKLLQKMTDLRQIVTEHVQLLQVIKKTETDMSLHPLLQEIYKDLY
Assay: LanthaScreen TR-FRET competitive binding assay

For C=C(C)[C@@H]1Cc2c(ccc(-c3coc4cc(O)ccc4c3=O)c2O)O1 [compound 17, 7, 2′-Dihydroxy-2′′ S-isopropenyl dihydrofuran [6′′, 7′′ : 3′, 4′]-isoflavone], the Ki was 1.57 µM.
